Here are results for four molecules from patent publication US7375092B2, “Lunasin peptides” (Regents of the University of California, priority 1997, dated 2008).

Test [1] deals with cotyledon and endosperm parynchematous cells. Nature of the test: Plant transformation: mitotic disruption in developing seeds. The test is classed as in vivo. To be noted: deletion mutant and synthetic fusion peptides. The source says:
Cereal endosperm and legume cotyledon make up at least 85% of the seed weight and that seed size is genetically correlated to crop yield by at least 80%. […] To accomplish this, the 5′ regulatory regions of soybean conglycinin gene (a 170 bp DNA sequence element that is 200 nucleotides upstream of the transcription start site conferring cotyledon-specific expression (Chen et al., 1988, EMBO J 7:297) and rice glutelin gene (a 121 bp DNA sequence element that is 437/317 nucleotide upstream of the transcription start site conferring endosperm-specific expression (Yoshihara and Takaiwa, 1996, Plant Cell Physiol 37:107) are inserted into the −90 position of the CaMV 35S promoter which are then fused to the DNA fragments encoding the in-frame translation of lunasin and lunasin-del peptides. The DNA constructs are ligated to the binary vector, pKYLX71 (Lloyd et al., 1992, Science 258:1773) for Agrobacterium transformation and to pGEM-3Zf(+) vector (Promega) for biolistic transformation (Cho et al., 1995, Plant Mol Biol Rept 13:255). Agrobacterium-mediated transformation using the cotyledon-specific DNA constructs is utilized for most dicots, i.e. legumes (soybean, peas, peanuts and kidney beans), Arabidopsis thaliana and tobacco. For monocots like the cereal grain crops, wheat, rice, barley, rye and corn, the biolistic method of transformation is utilized using the endosperm-specific DNA constructs. The expression of the lunasin peptide in the developing seeds of all these plant species are monitored by immunolocalization using antibodies derived specifically to the carboxyl end epitope of the lunasin peptide.

A further test has as its system mammalian cells. Description: Mitotic disruption by peptide panel in mammalian studies. The test is classed as cell-based. The note with it: deletion mutant and synthetic fusion peptides. An excerpt:
Similar mitotic disruption is observed using a large panel of lunasin and alisin deletion mutant peptides (lunasin-del-n and alisin-del-n) and lunasin/alisin-like synthetic peptides (Gm2S-1-syn-n). Exemplary active lunasin-del peptides in these mammalian studies include (again using N→C nomenclature convention): • lunasin-del-1: MRG—residues 57-64 of SEQ ID NO:2 fusion protein • lunasin-del-2: α-tubulin—residues 54-64 of SEQ ID NO:2 fusion protein • lunasin-del-3: β-tubulin—residues 48-63 of SEQ ID NO:2 fusion protein • lunasin-del-4: MAP2 —residues 26-64 of SEQ ID NO:2 fusion protein • lunasin-del-5: Mapmodulin—residues 57-64 of SEQ ID NO:2 fusion protein • lunasin-del-6: GFP—residues 54-64 of SEQ ID NO:2 fusion protein • lunasin-del-7: MAP4—residues 44-63 of SEQ ID NO:2 fusion protein • lunasin-del-8: FLAGG—residues 30-64 of SEQ ID NO:2 fusion protein • lunasin-del-9: CYCLIN A—residues 57-64 of SEQ ID NO:2 fusion protein • lunasin-del-10: CYCLIN B1—residues 54-64 of SEQ ID NO:2 fusion protein • lunasin-del-11: CYCLIN B2—residues 40-63 of SEQ ID NO:2 fusion protein • lunasin-del-12: CYCLIN B3—residues 34-64 of SEQ ID NO:2 fusion protein • lunasin-del-13: SH2—octa-aspartate fusion protein • lunasin-del-14: SH3—octa-aspartate fusion protein • lunasin-del-15: SEQ ID NO:2, residues 48-55—MRG-octa-aspartate fusion protein • lunasin-del-16: SEQ ID NO:2, residues 48-55—SEQ ID NO:2, residues 48-55—octa-aspartate fusion protein • lunasin-del-17: MRG-tetrta-aspartate-tetra glutamate fusion protein • lunasin-del-18: SEQ ID NO:2, residues 48-55-octa-glutamate fusion protein • lunasin-del-19: SEQ ID NO:2, residues 1-21-MRG-deca-glutamate fusion protein • lunasin-del-20: SEQ ID NO:2, residues 48-55—SEQ ID NO:2, residues 48-55—tetra-aspartate-tetra glutamate fusion protein
Alternatively, the peptides are introduced indirectly by expression within the targeted cell. Such expression may be effected by transciently or by upregulation of a stably introduced peptide-encoding gene.

A further test concerns DH5 E. coli cells. Description: Expression of Gm2S-1 peptides in bacteria: disruption of bacterial cell division (filamentation). The note with it: basal expression from pFLAG-1 in DH5 E. coli cells. The test is classed as cell-based. An excerpt: We sought to produce purified Gm2S-1-derived peptides, including lunasin and alisin peptides, for allergenicity tests using bacterial expression vectors. Initially, PCR amplified fragments that encode lunasin and a lunasin deletion (lunasin-del) mutant (with the 9 aspartic acid deleted from the carboxyl end) were first cloned into pGEM-T (Promega) PCR cloning vector, then cut with EcoR1 and HindIII to release lunasin and lunasin-del gene fragment which were then subcloned into pFLAG-1 bacterial expression vector (Kodak/IBI). Lunasin and lunasin-del pFLAG constructs were used to transform competent DH5 E. coli cells using standard heat shock protocol.
Similar mitotic disruption is observed using a large panel of lunasin and alisin deletion mutant peptides (lunasin-del-n and alisin-del-n) and lunasin/alisin-like synthetic peptides (Gm2S-1-syn-n). […]

For “lunasin-del-15: SEQ ID NO:2, residues 48-55—MRG-octa-aspartate fusion protein (MEKIQGRG; C-terminal MRG and octa-aspartate)”, the “mitotic disruption, active peptides in plant transformation studies” value in test [1] is recorded as “active”. For the same molecule, the “mitotic disruption, active peptides in mammalian studies” value in the test on mammalian cells is “active”.

On to “lunasin-del-19: SEQ ID NO:2, residues 1-21—MRG-deca-glutamate fusion protein (MTKFTILLISLLFCIAHTCSA; C-terminal MRG and deca-glutamate)”, for which the “mitotic disruption, active peptides in plant transformation studies” value in test [1] is on record as “active”. Further, in the test on mammalian cells, the “mitotic disruption, active peptides in mammalian studies” value is reported as “active”.

For the molecule “lunasin-del-18: SEQ ID NO:2, residues 48-55—octa-glutamate fusion protein (MEKIQGRG; C-terminal octa-glutamate)”, in test [1], the “mitotic disruption, active peptides in plant transformation studies” value was “active”. Further, the “mitotic disruption, active peptides in mammalian studies” value in the test on mammalian cells was “active”.

B1: large subunit peptide: 77 amino acid (8 kDa) large subunit (alisin) of Gm2S-1, residues 82-158 of SEQ ID NO:2 (protein)
chain: EGKDEDEEEEGHMQKCCTEMSELRSPKCQCKALQKIMENQSEELEEKQKKKMEKELINLATMCRFGPMIQCDLSSDD
In the case of B1, the “formation of elongated and non-septated bacterial filaments” value in the test with DH5 E. coli cells is recorded as “not detected”.
